Measurements published in patent US20060120972A1, “9-(N-methyl-piperidyliden-4)-thioxanthene for treatment of pulmonary hypertension” (priority 2004, published 2006).
Entries after “also recorded” stand apart in the source; their conditions may differ.

What was measured:
[1] = test system: plasma protein extravasation at the blood vessels within the Dura mater after mCPP application; experiment: mCPP model in guinea pigs: plasma protein extravasation (EvansBlue); format: in vivo; conditions: for Plasma protein extravasation as EvansBlue extinction at 600 nm: 2 min before 1 μg/kg mCPP, guinea pig dura mater
Description: In accordance to the protocol published by Markowitz et. al; (1987) and Olesen et. al; (2000), guinea pigs were used to determine the amount of plasma protein released at the blood vessels within the Dura mater after mCPP application.
2 minutes later 1 μg/kg body weight mCPP were injected and followed by the i.v. application of EvansBlue as marker for the protein plasma extravasation. 15 minutes later animals were transcranial perfused and decapitated. A defined area of the dura mater was isolated and transferred into an eppendorf tube containing 200 μl formamid. Because EvansBlue binds to plasma protein, the amount of bound marker dye is a measure of extravasation of plasma protein. Formamid dissolves EvansBlue from the protein which can be calorimetric detected and quantified at 600 nm.

[2] = biological target: T1, human Histamine H4 receptor (Homo sapiens, UniProt Q9H3N8); experiment: Cloned human H4 receptor binding assay
T1 construct: expressed in transfected cells
T1 sequence (Q9H3N8 whole entry): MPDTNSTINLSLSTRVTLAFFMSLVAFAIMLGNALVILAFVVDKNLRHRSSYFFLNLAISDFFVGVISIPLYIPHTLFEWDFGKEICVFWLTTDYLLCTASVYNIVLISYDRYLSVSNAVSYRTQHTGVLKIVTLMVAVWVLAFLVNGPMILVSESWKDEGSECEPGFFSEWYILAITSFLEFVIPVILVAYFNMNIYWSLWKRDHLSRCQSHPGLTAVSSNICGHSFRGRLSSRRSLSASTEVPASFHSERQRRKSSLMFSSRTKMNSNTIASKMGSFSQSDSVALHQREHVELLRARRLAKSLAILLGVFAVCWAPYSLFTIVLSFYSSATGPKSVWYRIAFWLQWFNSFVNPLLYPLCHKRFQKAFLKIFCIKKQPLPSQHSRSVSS
Description: (§1) CHO cells were stably transfected with an expression plasmid pCineohH1, pCineohH2, pCineohH3 and pCineohH4 encoding the human Histamine H1, H2, H3 or H4 receptor, respectively. Recombinant cell lines were harvested after confluent growth, homogenized in ice-cold 50 mM Na2/potassium phosphate buffer (pH 7.4) and used for radioligand binding studies. Cell homogenates (40-50 μg of protein) were incubated for 30 min at 25° C. in 50 mM Na2/potassium phosphate buffer (pH 7.4) in 400 μl with the various concentrations of either [^3H]-mepyramine, [^3H]-thiotidine, [^3H]-R-a-Methylhistamine, and [^3H]-pyramilamine for cells expressing recombinant human H1, H2, H3 and H4 receptors, respectively. The nonspecific binding was defined in the presence of 1 μM mianserin. […] The incubations were stopped by rapid dilution with 3 ml of ice-cold 50 mM Na2/potassium phosphate buffer (pH 7.4). […] Filters were washed twice in 3 ml of buffer and radioactivity retained on the filters was measured by liquid scintillation counting.
(§2) EC80 values were calculated from corresponding dose-response experiment using 5-HT, histamine, epinephrine (alpha 1A adrenergic receptor), dopamine (D2 dopaminergic receptor), and acetylcholine (M1 muscarinic receptor) as agonists.

[3] = biological target: T2, human Histamine H3 receptor (Homo sapiens, UniProt Q9Y5N1); experiment: Cloned human H3 receptor binding assay
T2 construct: expressed in transfected cells
T2 sequence (Q9Y5N1 whole entry): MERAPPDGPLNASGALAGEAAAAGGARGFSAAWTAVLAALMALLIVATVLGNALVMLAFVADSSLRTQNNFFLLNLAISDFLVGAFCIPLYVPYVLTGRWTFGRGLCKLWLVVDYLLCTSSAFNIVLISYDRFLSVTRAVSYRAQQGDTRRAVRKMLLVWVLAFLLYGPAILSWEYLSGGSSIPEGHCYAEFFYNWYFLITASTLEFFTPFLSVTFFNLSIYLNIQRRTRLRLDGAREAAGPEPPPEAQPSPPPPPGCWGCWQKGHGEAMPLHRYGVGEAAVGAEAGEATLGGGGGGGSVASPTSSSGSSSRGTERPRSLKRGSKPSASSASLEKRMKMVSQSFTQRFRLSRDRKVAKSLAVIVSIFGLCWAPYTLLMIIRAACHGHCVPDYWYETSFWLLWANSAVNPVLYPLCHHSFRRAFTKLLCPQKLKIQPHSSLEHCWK
Description: as §1, §2

[4] = biological target: T3, human Histamine H2 receptor (Homo sapiens, UniProt P25021); experiment: Cloned human H2 receptor binding assay
T3 construct: expressed in transfected cells
T3 sequence (P25021 whole entry): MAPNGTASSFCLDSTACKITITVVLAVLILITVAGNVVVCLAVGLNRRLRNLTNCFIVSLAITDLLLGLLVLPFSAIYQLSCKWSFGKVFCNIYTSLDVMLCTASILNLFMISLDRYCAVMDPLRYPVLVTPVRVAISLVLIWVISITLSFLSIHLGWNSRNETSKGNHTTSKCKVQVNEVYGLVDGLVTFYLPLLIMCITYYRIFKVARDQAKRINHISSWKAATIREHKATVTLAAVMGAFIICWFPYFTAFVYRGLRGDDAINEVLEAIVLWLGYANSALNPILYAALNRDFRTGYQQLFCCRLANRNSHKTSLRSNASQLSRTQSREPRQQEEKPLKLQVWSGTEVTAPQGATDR
Description: as §1, §2

[5] = biological target: T4, human 5-HT2B receptor (Homo sapiens, UniProt P41595); experiment: Cloned human 5-HT2B receptor binding assay; conditions: 5-HT2B versus 5HT2C; listed as compound of the preferred embodiments
T4 construct: expressed in transfected cells; host or cells: HEK 293 (transient)
T4 sequence (P41595 whole entry): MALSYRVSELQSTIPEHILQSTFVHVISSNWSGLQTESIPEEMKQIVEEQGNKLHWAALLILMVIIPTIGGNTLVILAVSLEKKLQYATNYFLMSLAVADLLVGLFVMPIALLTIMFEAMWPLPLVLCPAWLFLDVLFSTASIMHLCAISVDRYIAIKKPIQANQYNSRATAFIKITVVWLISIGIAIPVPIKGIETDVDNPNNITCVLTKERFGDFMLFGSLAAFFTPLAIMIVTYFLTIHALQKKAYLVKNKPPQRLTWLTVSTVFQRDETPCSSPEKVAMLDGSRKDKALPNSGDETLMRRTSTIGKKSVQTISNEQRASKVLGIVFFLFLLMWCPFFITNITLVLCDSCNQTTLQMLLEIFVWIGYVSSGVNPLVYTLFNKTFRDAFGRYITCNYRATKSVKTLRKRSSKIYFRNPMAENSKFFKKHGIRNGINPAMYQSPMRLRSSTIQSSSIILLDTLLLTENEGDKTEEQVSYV

[6] = biological target: T5, human Histamine H1 receptor (Homo sapiens, UniProt P35367); experiment: Cloned human H1 receptor binding assay
T5 construct: expressed in transfected cells
T5 sequence (P35367 whole entry): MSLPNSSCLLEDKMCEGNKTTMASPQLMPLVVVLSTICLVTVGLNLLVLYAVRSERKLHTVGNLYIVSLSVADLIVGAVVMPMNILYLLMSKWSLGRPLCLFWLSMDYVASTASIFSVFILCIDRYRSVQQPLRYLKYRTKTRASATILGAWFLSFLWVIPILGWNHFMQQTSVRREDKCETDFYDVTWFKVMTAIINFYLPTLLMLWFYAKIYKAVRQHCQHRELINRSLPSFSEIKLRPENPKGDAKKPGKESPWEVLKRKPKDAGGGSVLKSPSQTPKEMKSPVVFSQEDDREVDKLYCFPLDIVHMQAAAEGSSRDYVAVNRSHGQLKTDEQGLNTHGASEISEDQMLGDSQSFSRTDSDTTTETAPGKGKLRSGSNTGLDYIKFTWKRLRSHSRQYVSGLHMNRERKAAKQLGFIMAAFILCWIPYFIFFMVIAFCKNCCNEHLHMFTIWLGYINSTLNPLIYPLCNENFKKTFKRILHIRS
Description: as §1, §2

`CC[C@@H](CO)NC(=O)[C@@H]1C=C2c3cccc4c3c(cn4C)C[C@H]2N(C)C1` [Methysergide] was tested, and the “Plasma protein extravasation as EvansBlue extinction at 600 nm” value (“Plasma protein extravasation” for short) ([1]; dose 0.1 μg/kg i.v.) was 0.265 ± 0.034, the “Plasma protein extravasation” value ([1]; dose 1 μg/kg i.v.) was 0.250 ± 0.027 and the “Plasma protein extravasation” value ([1]; dose 10 μg/kg i.v.) was 0.228 ± 0.064. For the same molecule, the “Plasma protein extravasation” value ([1]; dose 100 μg/kg i.v.) was 0.189 ± 0.026.
With `CN1CCC(=C2c3ccccc3Sc3ccccc32)CC1` [Pimethixene, 9-(N-methyl-piperidyliden-4)-thioxanthene] the “Affinity for the human H4 receptor (in words)” value [2] was “no affinity”, the “pKi values H4” value [2] was “low activity” and the “Plasma protein extravasation” value ([1]; dose 0.001 μg/kg i.v.) was 0.269 ± 0.022. For the same molecule, the “Plasma protein extravasation” value ([1]; dose 0.01 μg/kg i.v.) was 0.157 ± 0.040, the “Plasma protein extravasation” value ([1]; dose 0.1 μg/kg i.v.) was 0.126 ± 0.028 and the “Affinity for the human H3 receptor (in words)” value [3] was “no affinity”. For the same molecule, the “pKi values H3” value [3] was “low activity”, the “Affinity for the human H2 receptor (in words)” value [4] was “no affinity” and the “pKi values H2” value [4] was “low activity”. The “Selectivity of affinity for 5-HT2B receptor versus 5HT2C receptor” value [5] was “selective affinity; also recorded: much higher affinity” and the “Affinity to the human H1 receptor (in words)” value [6] was “high affinity”.
In the case of `CN1CCC(=C2c3ccccc3CCc3sccc32)CC1` [Pizotifen], the “Plasma protein extravasation” value ([1]; dose 1 μg/kg i.v.) is reported as 0.404 ± 0.025, the “Plasma protein extravasation” value ([1]; dose 10 μg/kg i.v.) is reported as 0.144 ± 0.035 and the “Plasma protein extravasation” value ([1]; dose 100 μg/kg i.v.) is reported as 0.230 ± 0.018.
In the case of `Clc1cccc(N2CCNCC2)c1` [mCPP], the “EvansBlue extinction, positive control (mCPP agonist)” value ([1]; mCPP 1 μg/kg alone, no test compound, negative control 0,130±0,024) is reported as 0,300±0,038.
